Laboratory results as given in ChEMBL document CHEMBL4414611, “Hypascyrins A-E, Prenylated Acylphloroglucinols from Hypericum ascyron” (2019).
In brackets after ≈: the same amount, converted by molar mass.

Experiments:
Type in all cases: functional
[1] = test system: Staphylococcus aureus; experiment: Antibacterial activity against methicillin resistant Staphylococcus aureus assessed as reduction in bacterial growth incubated for 20 hrs by broth microdilution assay
[2] = test system: Bacillus subtilis; experiment: Antibacterial activity against Bacillus subtilis assessed as reduction in bacterial growth incubated for 20 hrs by broth microdilution assay
[3] = test system: Staphylococcus aureus; experiment: Antibacterial activity against methicillin susceptible Staphylococcus aureus assessed as reduction in bacterial growth incubated for 20 hrs by broth microdilution assay
[4] = test system: Escherichia coli; experiment: Antibacterial activity against Escherichia coli assessed as reduction in bacterial growth incubated for 20 hrs by broth microdilution assay

Compound: C=C(C)[C@@H]1CC[C@](C)(O)[C@H](C2=C(O)C(CC=C(C)C)(CC=C(C)C)C(=O)C(C(=O)CC(C)C)=C2O)C1
- MIC50 [1]: 2 µM (≈ 0.997 µg/mL)
- MIC [2]: 2 µM (≈ 0.997 µg/mL)
- MIC [3]: 1 to 2 µM (≈ 0.499 to 0.997 µg/mL)
- MIC50 [3]: 2 µM (≈ 0.997 µg/mL)
- MIC50 [4]: > 64 µM

Compound: CC(C)=CCC1(CC=C(C)C)C(=O)C(C(=O)CC(C)C)=C(O)C([C@@H]2C=C(C(C)C)CC[C@]2(C)O)=C1O
- MIC [1]: 4 to 8 µM (≈ 1.99 to 3.99 µg/mL)
- MIC50 [1]: 4 µM (≈ 1.99 µg/mL)
- MIC [2]: 4 µM (≈ 1.99 µg/mL)
- MIC [3]: 4 µM (≈ 1.99 µg/mL)
- MIC50 [3]: 4 µM (≈ 1.99 µg/mL)
- MIC50 [4]: > 64 µM

Compound: CCC(C)C(=O)C1=C(O)C([C@@H]2C=C(C(C)C)CC[C@]2(C)O)=C(O)C(CC=C(C)C)(CC=C(C)C)C1=O (stereo partly specified)
- MIC50 [1]: 8 µM (≈ 3.99 µg/mL)
- MIC [2]: 4 µM (≈ 1.99 µg/mL)
- MIC [3]: 4 to 8 µM (≈ 1.99 to 3.99 µg/mL)
- MIC50 [3]: 8 µM (≈ 3.99 µg/mL)
- MIC50 [4]: > 64 µM
